{"source": "patent US20060270591A1", "about": "“Androgen receptor coregulators” (priority 2002, published 2006)", "key": {"p27^KIP1": {"tested_on": "p27^KIP1", "test": "Western blot of p27KIP1 in PC-3(AR2) cells", "type": "cell-based, human", "conditions": "10 nM DHT", "method": "41. […] (A) C2C12, COS-1, DU145 and PC-3 cell lines were co-transfected with 30 ng pSG5-AR, 0.5 μg MMTV-Luc, 1 ng pRL-SV40, various amounts of pSG5-bSV as indicated, and adjusted to total amount of 2 μg DNA with pSG5. The assay method was the same as FIG. 2. After measuring the luciferase activity, values relative to lane 1 were calculated. Results are the mean±S.D. of three independent experiments. (B) PC-3 was co-transfected with 30 ng pSG5-AR, 1.5 μg pSG5-bSV, 1 ng pRL-SV40, and 0.5 μg reporter gene as indicated by using SuperFect. […] (C) PC-3(AR2) cell line was transfected with EGFP or EGFP-bSV expressing vector using SuperFect. […] Proteins extracted from cells were loaded on 15% SDS-PAGE and analyzed by western blotting. The intensity of each p27 band was quantified and normalized with control protein which is a non-specific band pick up by the antibody in the same blot. The relative intensities to lane 1 were calculated.\n478. Protein samples extracted from the cell were separated on 15% SDS-PAGE and transferred to nitrocellulose membranes. Membranes were incubated 1 h with 5% non-fat milk in TBST at room temperature, followed by the antibodies against p27^(KIP1) (Santa Cruz), followed by AP conjugated goat-antimouse antibody. Blots were developed using the AP developing reagent from Bio-Rad. Band intensity was quantitated by Collage® image analysis software (Fotodyne Inc.)."}, "LNCaP cell": {"tested_on": "LNCaP cell", "conditions": "10 nM DHT; cited from earlier work"}, "ARA70 and AR": {"tested_on": "ARA70 and AR", "conditions": "LNCaP cells; cited from earlier work"}, "AR [1]": {"tested_on": "AR", "test": "AR reporter gene assay with gelsolin (Example 5)", "type": "cell-based, human", "conditions": "for effect on gelsolin enhanced AR activity: PC-3 cells, co-transfected flag-AR peptides", "description": "468. A C-terminal fragment of gelsolin (aa 281-731) was isolated from pACT2 encoding gelsolin, and inserted into pSG5-Gal4 DNA-binding domain (DBD) (constructed by Dr. R. Nakao). AR fragment (aa 36-918) was inserted into pCMX-VP16 (a gift from Dr. D. Chen). For gelsolin expression vector, a full-length cDNA fragment of gelsolin from LKCG, a gift from Dr. D. Kwiatkowski (Northwestern University, Evanston, Ill.), was inserted into pSG5. Dr. M. L. Lu (Harvard Medical School, Boston, Mass.) provided the p (ARE) 4-luciferase (LUC) plasmid. Dr. A. Mizokami (University of Kanazawa, Kanazawa, Japan) provided the pGL3-PSA6.0LUC plasmid. The expression plasmids of AR peptides were constructed by inserting the PCR amplified cDNA fragment of AR DBD into pFlag-CMV (Sigma) and the fragments of AR LBD into pCDNA-flag plasmid. Transfection protocol and reporter gene assay were described in previous report (Ting et al. Proc Natl Acad Sci USA 99, 661-666 (2002))."}, "[2]": {"biological_target": "T1, AR N-terminus and AR C-terminus (Homo sapiens, UniProt P10275)", "T1 construct": "AR DBD plus LBD (GST-AR-DL); expressed in transfected cells; host or cells: PC-3 cells (human prostate cancer line)", "T1 sequence (P10275 555-920 limits assumed)": "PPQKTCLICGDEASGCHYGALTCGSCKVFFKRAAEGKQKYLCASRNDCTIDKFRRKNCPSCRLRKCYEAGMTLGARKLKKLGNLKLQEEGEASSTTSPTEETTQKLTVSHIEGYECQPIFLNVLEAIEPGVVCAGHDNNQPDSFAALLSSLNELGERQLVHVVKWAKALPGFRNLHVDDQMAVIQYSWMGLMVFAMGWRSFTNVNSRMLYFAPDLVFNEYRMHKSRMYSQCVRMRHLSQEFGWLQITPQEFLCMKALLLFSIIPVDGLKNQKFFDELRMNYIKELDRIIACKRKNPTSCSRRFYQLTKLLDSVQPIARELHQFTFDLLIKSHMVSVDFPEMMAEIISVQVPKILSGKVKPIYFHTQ", "T1 sequence (P10275 1-559 partner limits assumed)": "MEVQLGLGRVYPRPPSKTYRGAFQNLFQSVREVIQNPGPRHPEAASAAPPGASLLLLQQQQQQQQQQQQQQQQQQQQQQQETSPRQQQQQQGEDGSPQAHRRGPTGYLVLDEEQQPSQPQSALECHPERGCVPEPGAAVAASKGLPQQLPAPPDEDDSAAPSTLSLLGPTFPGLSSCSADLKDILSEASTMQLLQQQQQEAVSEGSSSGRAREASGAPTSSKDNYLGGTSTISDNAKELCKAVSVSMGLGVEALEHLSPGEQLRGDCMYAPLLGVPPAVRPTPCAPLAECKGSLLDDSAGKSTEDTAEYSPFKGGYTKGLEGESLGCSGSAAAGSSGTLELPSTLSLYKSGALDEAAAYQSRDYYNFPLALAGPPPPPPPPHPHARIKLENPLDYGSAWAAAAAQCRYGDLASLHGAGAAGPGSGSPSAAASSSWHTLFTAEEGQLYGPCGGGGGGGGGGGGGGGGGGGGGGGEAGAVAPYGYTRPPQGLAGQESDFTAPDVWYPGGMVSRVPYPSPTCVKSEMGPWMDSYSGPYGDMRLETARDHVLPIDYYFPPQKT", "test": "Mammalian two-hybrid assay of AR N-C interaction in PC-3 cells", "type": "cell-based", "conditions": "DHT", "method": "44. […] PC-3 cells were transfected with 30 ng plasmids expressing Gal4(DBD)-AR-DL, VP16 or VP16-ARN combined with 1.5 μg pSG5, pSG5-bSV, -ARA55, or -SRC-1α as indicated. The reporter plasmid pG5-Luc (0.5 μg) and control plasmid pRL-Luc (1 ng) were transfected to every sample. The assay was carried out as described in FIG. 29C.\n474. Mouse myoblast cell line (C2C12), human prostate cancer cell lines (PC-3 and DU145), and monkey kidney fibroblast cell line (COS-1) were maintained in Dulbecco's minimum essential medium (DMEM) containing penicillin (25 units/ml), streptomycin ([…]), and 10% fetal bovine serum (FBS). In mammalian two-hybrid assay, transfections were performed using the calcium phosphate precipitation method as described previously (15). Briefly, 1.5-3×10^5 cells were plated on 35-mm dishes for 24 h, and the medium was changed to DMEM containing 10% charcol-dextran stripped FBS (CD-FBS) 2 h before transfection. Cells were transfected with 0.5 μg plasmids expressing Gal4(DBD) and VP-16 fusion proteins as indicated. Gal4 response element controlled Firefly luciferase expression plasmid, pG5-Luc, was used as reporter gene. A Renilla luciferase expression plasmid pRL-SV40 was used as an internal control for transfection efficiency. The total amount of DNA was adjusted to 5 μg with pCMX-VP16 vectors. […]"}, "ARA55 mRNA": {"tested_on": "ARA55 mRNA", "test": "Northern blot of ARA55 mRNA in PC3 cells", "type": "cell-based, human", "conditions": "5 ng/ml", "description": "360. The total RNA (25˜g) was fractionated on a 1% formaldehyde-MOPS agarose gel, transferred onto a Hybond-N nylon membrane (Amersham) and prehybridized. A probe corresponding to the 900 bp C-terminus of ARA55 or an ARA54-specific sequence was 32P-labeled in vitro using Random Primed DNA Labeling Kit (Boehringer-Mannheim) according to the manufacture's protocol and hybridized overnight. After washing, the blot was exposed and quantified by Molecular Dynamics PhosphorImager. β-actin was used to monitor the amount of total RNA in each lane."}, "AR [3]": {"tested_on": "AR", "test": "AR transactivation assay, MMTV-CAT reporter, transient transfection (Example 1)", "type": "cell-based, human", "conditions": "PC3 cells; TGF-β 5 ng/ml", "method": "Human prostate cancer DU145 or PC3 cells, or human lung carcinoma cells NCI H1299 were grown in Dulbecco's minimal essential medium (DMEM) containing penicillin (25 U/ml), streptomycin (25˜g/ml), and 5% fetal calf serum (FCS). One hour before transfection, the medium was changed to DMEM with 5% charcoal-stripped FCS. […] A β-galactosidase expression plasmid, pCMV-β-gal, was used as an internal control for transfection efficiency.\nThe medium was changed 24 hr posttransfection and the cells treated with either steroid hormones or hydroxyflutamide, and cultured for an additional 24 hr. Cells were harvested and assayed for CAT activity after the cell lysates were normalized by using β-galactosidaseas an internal control. Chloramphenicol acetyltransferase (CA) activity was visualized by PhosphorImager (Molecular Dynamics) and quantitated by ImageQuant software (Molecular Dynamics)."}, "AR [4]": {"tested_on": "AR", "test": "AR transactivation dual-luciferase assay with supervillin (Example 6)", "type": "cell-based, human", "conditions": "COS-1 cells; 10 nM DHT; MMTV-Luc", "method": "In AR transactivation activity assays, transfections were performed using SuperFect (Qiagen, Chatsworth, Calif.) following protocols described in manual provided by Qiagen. Briefly, cells were plated on 35 mm dishes and after 24 h were transfected using the SuperFect kit. The total DNA amount was adjusted to 2 μg with pSG5 or pEGFP vectors. The medium was changed to DMEM with 10% CD-FBS 2 h after transfection. After 24 h, the DMEM with 10% CD-FBS was changed again, and the cells were treated with various steroids. Cells were harvested after 24 h for dual-luciferase assay as described in protocol provided by Promega. At least three independent experiments were carried out in each case."}}}
{"compound": "C[C@]12CCC(=O)C[C@@H]1CC[C@@H]1[C@@H]2CC[C@]2(C)[C@@H](O)CC[C@@H]12", "note": "[DHT, 5α-dihydrotestosterone, reference compound]", "values": [{"measurement": "p27^(KIP1) protein expression", "setting": "p27^KIP1", "result": "induced p27^(KIP1) protein expression"}, {"measurement": "LNCaP cell apoptosis", "setting": "LNCaP cell", "result": "promotes LNCaP cell apoptosis"}]}
{"compound": "Oc1ccc(C=Cc2cc(O)cc(O)c2)cc1", "note": "[resveratrol]", "values": [{"measurement": "expression of ARA70 and AR transactivation", "setting": "ARA70 and AR", "result": "repress the expression of ARA70 and AR transactivation"}]}
{"compound": "D1: AR peptide D1 (aa 551-600) within AR DBD (DYYFPPQKTCLICGDEASGCHYGALTCGSCKVFFKRAAEGKQKYLCASRN; UniProt P10275 551-600, looked up, fragment)", "values": [{"measurement": "effect on gelsolin enhanced AR activity", "setting": "AR [1]", "result": "suppressed gelsolin enhanced AR activity"}]}
{"compound": "HI-2: AR peptide H1-2 (aa 655-695) within AR LBD (TTQKLTVSHIEGYECQPIFLNVLEAIEPGVVCAGHDNNQPD; left off: small tags and cut ends)", "values": [{"measurement": "effect on gelsolin enhanced AR activity", "setting": "AR [1]", "result": "suppressed gelsolin enhanced AR activity"}]}
{"compound": "SRC-1: p160 steroid receptor coactivator-1", "values": [{"measurement": "effect on AR N-C interaction", "setting": "[2]", "result": "further enhance"}]}
{"compound": "TGF-β [reference compound]", "values": [{"measurement": "induction of ARA55 mRNA", "setting": "ARA55 mRNA", "result": 2, "unit": "fold"}, {"measurement": "increase of AR transcription activity", "setting": "AR [3]", "result": 70, "unit": "%"}]}
{"compound": "bSV(831-1281): peptide containing a.a. 831-1281 of bSV, conjugated with EGFP", "values": [{"measurement": "AR transactivation with EGFP-bSV construct", "setting": "AR [4]", "result": 248, "unit": "fold"}]}
{"compound": "bSV(1010-1792): domain within SV (a.a. 1010-1792), conjugated with EGFP", "values": [{"measurement": "effect of EGFP-bSV construct on AR transactivation", "setting": "AR [4]", "result": "only a marginal effect"}]}
{"compound": "gelsolin: multifunction actin-binding protein, AR coregulator", "values": [{"measurement": "inhibition of AR activity by HF with added gelsolin", "setting": "AR [1]; 100 nM HF, normal 10% FCS medium", "result": 40, "unit": "%"}, {"measurement": "enhancement of AR transcription activity", "setting": "AR [1]; DU145 cells, 10 nM DHT", "result": "2-3 fold"}, {"measurement": "effect on AR transcription activity", "setting": "AR [1]; DU145 cells, absence of DHT", "result": "no significant effect"}]}
